Experimental findings from publication PMC12040169 (PLOS Biology, 2025) are described below.

The nature of the data set: in vitro. The note with it: human, hela cells, % viability.

Usually viability stands for a read-out of living cells in per cent, often relative to untreated cells. Regarding `O=C(NCCc1ccc(F)cc1)C1CN(C(=O)c2ccc3nsnc3c2)C1` [CBK285690], the viability at 28.5 h, 10 µM is 95.8%.

`Cn1c(CCNC(=O)NC2CCCCC2)nc2cc([N+](=O)[O-])ccc21` [CBK268453]: the viability at 28.5 h, 10 µM was 95.7%.

For the molecule `CC1=NN(c2ccc([N+](=O)[O-])cc2)C(=O)/C1=C/NCCN1CCN(C(=O)c2ccc(F)cc2)CC1` [CBK262920], the viability at 28.5 h, 10 µM was determined as 95.1%.

Regarding `COc1cncc(-c2cc(N3CCC(N4CCCCC4)CC3)ncn2)c1` [CBK090964], the viability at 28.5 h, 10 µM is 90.3%.

As for `COC(=O)C1C(=O)Oc2ccc3ccccc3c2C1C(C)C(=O)c1ccc(Br)cc1` (stereo not shown) [CBK266126], the viability at 28.5 h, 10 µM was determined as 114%.

On to `Cc1nn(C)c2ncc(S(=O)(=O)NC(C)c3cccc(F)c3)cc12` (stereo not shown) [CBK305948], for which the viability at 28.5 h, 10 µM is 94.9%.

As to `Cc1nccn1CC1CCCN(Cc2ccnc3ccccc23)C1` (stereo not shown) [CBK281966], the viability at 28.5 h, 10 µM came out at 84.7%.

As for `Cc1nc2ccc(NC(=O)Nc3cccc(-c4ccc5c(c4)COC4(CCNCC4)O5)c3)cc2o1` [CBK113206], where the note is “bulk resorufin, single well”, the viability at 28.5 h, 10 µM turned out to be 101%.

As for `O=C(/C=C/c1ccc2c(c1)OCO2)N1CCN(C(=O)c2ccco2)CC1` [CBK144459], the viability at 28.5 h, 10 µM is 95.1%.

With `C=CCn1c(-c2sc(NC(=O)c3ccc(Cl)cc3F)nc2C)n[nH]c1=S` [CBK295361], the viability at 28.5 h, 10 µM was determined as 94.7%.

Take `O=C(Cn1cnnn1)NCc1ccccc1` [CBK200255]: the viability at 28.5 h, 10 µM worked out at 83.6%.

As for `COCCNC(=O)c1cc2n(n1)C(C(F)(F)F)CC(c1ccccc1)N2` (stereo not shown) [CBK307610], the viability at 28.5 h, 10 µM stood at 114%.

On to `CN1CC[C@]2(c3ccc4c(c3)nnn4C)CC[C@@H](NC(=O)Nc3cc(F)cc(C(F)(F)F)c3)C[C@H]12` [CBK067800], for which the viability at 28.5 h, 10 µM amounted to 99.2%.

For the molecule `CNc1ncnc2c1ncn2C1CC(O)C(CO)O1` (stereo not shown) [CBK201308], the viability at 28.5 h, 10 µM was found to be 96.7%.

In the case of `Nc1ncc(-c2ccncc2)nc1NCc1cccnc1` [CBK063879], the viability at 28.5 h, 10 µM came out at 103%.

Take `Cc1ccc(-c2ccc(CCC(=O)O)n2NC(=O)c2ccc([N+](=O)[O-])cc2)cc1` [CBK264776]: the viability at 28.5 h, 10 µM is 109%.

On to `CC(C)(C)c1cc(NC(=O)c2csc3c(C(F)(F)F)cc(N4CCN(Cc5ccccc5)CC4)nc23)no1` [CBK028962], for which the viability at 28.5 h, 10 µM worked out at 108%.

Turning to `CCn1nccc1C(=O)N1CCC(c2cc3c(C)cccc3cn2)CC1` [CBK282234], the viability at 28.5 h, 10 µM is 92.4%.

Regarding `COc1ccc(Cl)cc1NC(=O)CN(C1CCCCC1)S(C)(=O)=O` [CBK266720], the viability at 28.5 h, 10 µM was determined as 105%.

As for `CCOC(=O)c1cnc(SC)nc1N1CCOCC1` [CBK018971], the viability at 28.5 h, 10 µM was 90.7%.

In the case of `COc1cc(C)c(S(=O)(=O)Nc2ccc(CC(=O)O)cc2)cc1C` [CBK299782], the viability at 28.5 h, 10 µM was 101%.

In the case of `CCN(Cc1ccc(C#N)cc1F)C(=O)C(NC(=O)OC)C(C)C` (stereo not shown) [CBK306372], the viability at 28.5 h, 10 µM is 86.2%.

For `Nc1ccn([C@H]2C[C@@H](O)[C@@H](CO)O2)c(=S)n1` [CBK201187], the viability at 28.5 h, 10 µM came out at 91.4%.

With `Fc1ccc(CSc2nc3ccccc3nc2C(F)(F)F)cc1` [CBK107199], the viability at 28.5 h, 10 µM stood at 98.6%.

As to `CCOC(=O)C1CCN(c2cccc(F)c2C#N)CC1` [CBK304558], the viability at 28.5 h, 10 µM was found to be 101%.

Take `CCOc1ncccc1C(=O)NCc1ccc(COCC(F)(F)F)cc1` [CBK304526]: the viability at 28.5 h, 10 µM worked out at 97.8%.

Take `C[C@@H](Cn1nc2c(cc1=O)CCCC2)NC(=O)c1ccccc1F` [CBK284560]: the viability at 28.5 h, 10 µM was 92.5%.

As for `CN(C)CCN(C)c1cncc(-c2cccc(/C=C/C(=O)O)c2)n1` [CBK065451], the viability at 28.5 h, 10 µM was 99.5%.

For the molecule `CCN(CC)C(=O)C1CCCN(C(=O)NC(c2ccccc2)c2ccccc2)C1` (stereo not shown) [CBK156125], the viability at 28.5 h, 10 µM is 106%.

Regarding `Cc1cccc(N(CC(=O)O)CC(=O)O)c1` [CBK261103], the viability at 28.5 h, 10 µM amounted to 93.2%.

On to `COC(=O)c1ccc(N2CCN(C(C)c3nnc(C)o3)C(C)C2)cc1` (stereo not shown) [CBK304926], for which the viability at 28.5 h, 10 µM was determined as 108%.

Regarding `CN(C)CC(Oc1ccccc1)C(=O)c1ccccc1` (stereo not shown) [CBK011935C], the viability at 28.5 h, 10 µM came to 101%.

As to `C=CCn1c(Cc2csc(NC(=O)c3ccc(C)c(F)c3)n2)n[nH]c1=S` [CBK295307], the viability at 28.5 h, 10 µM came to 80.6%.

As for `O=C(NC(c1cccnc1)c1ccc2c(c1)OCO2)C1CCN(CCc2cccs2)CC1` (stereo not shown) [CBK148503], the viability at 28.5 h, 10 µM is 105%.

In the case of `O=C(c1ccc(OC(F)(F)F)cc1)N1CCC2(CCCNC2)C1` (stereo not shown) [CBK137156C], the viability at 28.5 h, 10 µM stood at 87.7%.

Regarding `CCNC(=O)N[C@H]1CO[C@H]2[C@@H]1OC[C@@H]2Nc1nccc(-c2ccc(OC)cc2)n1` [CBK289528], the viability at 28.5 h, 10 µM amounted to 89.3%.

As for `O=C(Cc1ccccc1)N/N=C/c1nnco1` [CBK021274], the viability at 28.5 h, 10 µM turned out to be 121%.

Regarding `O=C(Nc1ccncc1)c1ccc(CNS(=O)(=O)c2cccc(C(F)(F)F)c2)cc1` [CBK267181], the viability at 28.5 h, 10 µM stood at 88.5%.

As for `COc1cc(C(=O)Nc2ccc3[nH]ccc3c2)cc(OC)c1OC` [CBK159696], the viability at 28.5 h, 10 µM was found to be 92.9%.

With `COc1ccc(C(=O)CSc2nnc(C)[nH]2)cc1[N+](=O)[O-]` [CBK264350], the viability at 28.5 h, 10 µM stood at 95.5%.

Consider `CNC(=O)c1cnc2sc3c(n2c1=O)CCCC3` [CBK288126], for which the viability at 28.5 h, 10 µM came out at 102%.

Turning to `Cn1nccc1C(=O)NC1CCN(CC2(c3ccccc3)CC2)CC1` [CBK285373], the viability at 28.5 h, 10 µM stood at 106%.

With `COc1ccc(C(C)(C)C)cc1NC(=O)c1ccncc1` [CBK288248], the viability at 28.5 h, 10 µM was determined as 92%.

As to `Cn1nccc1C(=O)N[C@H]1CCC[C@@H](c2c[nH]c3ccccc23)C1` [CBK285073], the viability at 28.5 h, 10 µM is 93.6%.

`O=C(CCNC(Cc1ccccc1)C(=O)O)c1ccccc1` (stereo not shown) [CBK286655]: the viability at 28.5 h, 10 µM is 83%.

As for `O=C1CSC2(C(=O)Nc3ccc(Br)cc32)N1c1cccc([N+](=O)[O-])c1` (stereo not shown) [CBK093451], the viability at 28.5 h, 10 µM was 94.3%.

Regarding `O=C(CN1CCN(c2cc(-c3ccsc3)ncn2)CC1)N1CCCC1` [CBK091074], the viability at 28.5 h, 10 µM was 99.9%.

Consider `COc1ccc(C(=O)N2CCC3(CCN(Cc4c(F)cccc4F)C3)C2)cc1OC` (stereo not shown) [CBK132152], for which the viability at 28.5 h, 10 µM was 92.8%.

On to `COc1ccc(Cn2c(=O)n(C(=O)c3cccc(S(C)(=O)=O)c3)c3ccccc32)cc1` [CBK106547], for which the viability at 28.5 h, 10 µM was found to be 86.5%.

For `CC(=O)Nc1cccc(Oc2nccnc2-c2cnn(Cc3ccccc3)c2)c1` [CBK107096], the viability at 28.5 h, 10 µM was found to be 101%.

As to `O=C(O)C1CCC(N2C(=O)C3C4CCC(C4)C3C2=O)CC1` (stereo not shown) [CBK287183], the viability at 28.5 h, 10 µM stood at 82.2%.

On to `COc1ccc(Cn2c(C)nc3ccccc32)cc1` [CBK201156], for which the viability at 28.5 h, 10 µM was 116%.

For the molecule `COc1cc(CN2CCNCC2)c2ccn(S(=O)(=O)c3ccccc3Cl)c2c1` [CBK144483T], the viability at 28.5 h, 10 µM worked out at 91.9%.

On to `COc1ccccc1CCCN1CCC(C(=O)NC(=O)Nc2ccccc2)CC1` [CBK034865], for which the viability at 28.5 h, 10 µM was 89.7%.

Consider `CCC(Oc1nc2ccccc2nc1-c1ccccc1NC(C)=O)C(=O)c1ccccc1` (stereo not shown) [CBK267315], for which the viability at 28.5 h, 10 µM amounted to 94.4%.

In the case of `N#Cc1ccc(-c2nc3cc(Cl)c(F)cc3[nH]2)cc1` [CBK096290], the viability at 28.5 h, 10 µM worked out at 90.6%.

For the molecule `Cc1nn(C)c(N2CCNCC2)c1NC(=O)c1cnccn1` [CBK050308T], the viability at 28.5 h, 10 µM was 86.3%.

For the molecule `CCn1cc(C(=O)N2CCCCC2c2nc3cc(C)ccc3[nH]2)cn1` (stereo not shown) [CBK283869], the viability at 28.5 h, 10 µM was determined as 84.6%.

`Cn1c(=O)oc2ccc(C(=O)CSc3nnnn3-c3ccccc3)cc21` [CBK300488]: the viability at 28.5 h, 10 µM stood at 90.1%.

On to `CN(C)c1ccc(-n2ncc(-c3ccccc3C(F)(F)F)n2)cc1` [CBK112716], for which the viability at 28.5 h, 10 µM was determined as 92.4%.

As to `Cc1ccccc1-n1ccn(S(=O)(=O)C(C)C)c1=O` [CBK106566], the viability at 28.5 h, 10 µM worked out at 89.7%.

`CN(c1ncc(-c2ccccc2)cc1C(=O)NCc1cccnc1)S(C)(=O)=O` [CBK076507]: the viability at 28.5 h, 10 µM turned out to be 98.9%.

On to `Cc1cc2c(cc1Br)NC(=O)/C2=N\O` [CBK288453], for which the viability at 28.5 h, 10 µM stood at 56%.

For the molecule `C=CCn1c(-c2sc(NC(=O)CNC(=O)C(C)(C)C)nc2C)n[nH]c1=S` [CBK297907], the viability at 28.5 h, 10 µM was 91.2%.

For `CC(C)n1cc(CN2CCNC(=O)C2c2ccccc2C(F)(F)F)nn1` (stereo not shown) [CBK304732], the viability at 28.5 h, 10 µM was 91.6%.

As for `CN(C(=O)C1(NC(N)=O)CC1)c1nc2c(s1)CC(c1ccccc1)CC2` (stereo not shown) [CBK306022], the viability at 28.5 h, 10 µM was 93%.

In the case of `COc1ccc(OC)c(NC(=O)CSc2nnc(-c3ccc(F)cc3)n2C)c1` [CBK266073], the viability at 28.5 h, 10 µM stood at 92%.

Take `CC1(NC(=O)Cn2c(C(F)(F)F)nc3ccccc32)CCC1` [CBK281606]: the viability at 28.5 h, 10 µM was found to be 82.2%.

In the case of `COc1ccc(-c2nc3cc(OC)ccc3[nH]2)cc1` [CBK000126], the viability at 28.5 h, 10 µM is 90.5%.

For `NS(=O)(=O)c1ccc(CCNC(=O)/C=C/c2ccccc2[N+](=O)[O-])cc1` [CBK265709], the viability at 28.5 h, 10 µM was 101%.

With `Cc1nn(-c2ccccc2)c2sncc12` [CBK006869], the viability at 28.5 h, 10 µM turned out to be 109%.

In the case of `COc1ccccc1-c1nnc(SCc2ccc(C(=O)O)cc2)[nH]1` [CBK266631], the viability at 28.5 h, 10 µM is 99.5%.

Turning to `CCOC(=O)c1c(C(C)(C)C)oc2ccc(OCC(=O)c3ccc(OC)cc3)cc12` [CBK264950], the viability at 28.5 h, 10 µM stood at 123%.

As to `Cc1cc(OC(C)C(=O)Nc2ccccc2C(=O)N2CCCC2)ccc1Cl` (stereo not shown) [CBK269710], the viability at 28.5 h, 10 µM turned out to be 94.3%.

As for `COc1ccc(C(=O)O)cc1NC(=S)NC(=O)c1ccc(-c2ccccc2)cc1` [CBK265064], the viability at 28.5 h, 10 µM came out at 99.5%.

Turning to `OCCN(Cc1cccnc1)Cc1cccn1-c1ccc(F)cc1` [CBK283023], the viability at 28.5 h, 10 µM is 95.9%.

`CCNC(=O)N1CC2(CCN(CCOc3ccccc3)CC2)c2ccccc21` [CBK122701]: the viability at 28.5 h, 10 µM worked out at 93.9%.

Turning to `COc1ccc2nc(Nc3nc(C)c(C(C)=O)s3)sc2c1` [CBK287483], the viability at 28.5 h, 10 µM came to 94.8%.

On to `COc1ccc(Nc2ncnc3c2c(C)c(C)n3CCO)cc1` [CBK288161], for which the viability at 28.5 h, 10 µM turned out to be 102%.
